From patent publication US20250333397A1 (REMIX THERAPEUTICS INC., priority 2021, published 2025)
pIC50: −log10 of the molar value. Where two headings read alike, the source gives them in different places.

Tests used:
Assay type in all cases: cell-based, human
Target C mRNA = assay: RT-qPCR splicing assay panel, Target C canonical junction (CJ) mRNA; details: Homo sapiens, canonical junction (CJ) mRNA, RT-qPCR panel, Table 4A; read-out: Target C, decrease in CJ mRNA levels, IC50
Outline: (§1)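 A673 or K562 cells were treated 24 h at 37 °C with an 11-point 3-fold compound dilution series, top dose 10 uM final, DMSO ≤0.25%. Lysates went to one-step RT-qPCR for canonical (CJ) and alternative-exon (AJ) junctions; ΔCt vs GAPDH, GUSB or PPIA, normalized to DMSO, as 2^(-ΔΔCt).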

MYB mRNA = assay: RT-qPCR splicing assay, MYB canonical (CJ) and alternative (AJ) junction mRNA; details: Homo sapiens; for AC50: read-out: MYB AJ (AC50, increase in AJ mRNA)
Outline: as §1

SMN2 mRNA = assay: RT-qPCR splicing assay panel, SMN2 canonical junction (CJ) mRNA; details: Homo sapiens, canonical junction (CJ) mRNA, RT-qPCR panel, Table 4A; read-out: SMN2, decrease in CJ mRNA levels, IC50
Outline: as §1

HTT mRNA = assay: RT-qPCR splicing assay, HTT canonical (CJ) and alternative (AJ) junction mRNA; details: Homo sapiens; for AC50: read-out: HTT AJ (AC50, increase in AJ mRNA)
Outline: as §1

[1] = 24 h, Table 3A, A673 or K562 cells, 24 h treatment
[2] = 24 h, Table 3A, A673 or K562 cells, 24 h treatment, read-out: MYB CJ (IC50, decrease in CJ mRNA)
[3] = canonical junction (CJ) mRNA, RT-qPCR panel, Table 4A, read-out: MYB, decrease in CJ mRNA levels, IC50
[4] = 24 h, Table 3A, A673 or K562 cells, 24 h treatment, read-out: HTT CJ (IC50, decrease in CJ mRNA)
[5] = canonical junction (CJ) mRNA, RT-qPCR panel, Table 4A, read-out: HTT, decrease in CJ mRNA levels, IC50

SMILES | pIC50 (Target C mRNA) | pIC50 (MYB mRNA; [2]) | pIC50 (MYB mRNA; [3]) | pIC50 (SMN2 mRNA) | pIC50 (HTT mRNA; [4]) | pIC50 (HTT mRNA; [5]) | AC50 (MYB mRNA; [1]) [nM] | AC50 (HTT mRNA; [1]) [nM]
CCOc1cc(-c2ccc(-c3ccc(N4CC[C@@H](NC5CCC5)C4)nn3)c(O)c2)cnn1 [Compound 301] | < 5.00 | < 5.00 | < 5.00 | 5.00 to 6.00 | < 5.00 | < 5.00 | > 10000 | > 10000
COc1cc(-c2ccc(-c3ccc(N4CC[C@H](N(CCF)C5CCC5)C4)nn3)c(O)c2)cnn1 [Compound 303] | < 5.00 | < 5.00 | < 5.00 | 6.00 to 7.00 | 6.00 to 7.00 | 6.00 to 7.00 | > 10000 | 100 to 1000
COc1cncc(-c2ccc(-c3ccc(N4CC[C@H](NC5CCC5)C4)nn3)c(O)c2)c1 [Compound 304] | 5.00 to 6.00 | 5.00 to 6.00 | 5.00 to 6.00 | 5.00 to 6.00 | 5.00 to 6.00 | 5.00 to 6.00 | 1000 to 10000 | 1000 to 10000
COc1cc(-c2ccc(-c3ccc(N4CCC(NC5CCC5)C4)nn3)c(O)c2)ccn1 (stereo not drawn) [Compound 305] | 5.00 to 6.00 | 5.00 to 6.00 | 5.00 to 6.00 | 6.00 to 7.00 | 6.00 to 7.00 | 6.00 to 7.00 | 1000 to 10000 | 100 to 1000

Continued, in another order:

pIC50 (Target C mRNA) | pIC50 (MYB mRNA; [2]) | pIC50 (MYB mRNA; [3]) | pIC50 (SMN2 mRNA) | pIC50 (HTT mRNA; [4]) | pIC50 (HTT mRNA; [5]) | SMILES | AC50 (MYB mRNA; [1]) [nM] | AC50 (HTT mRNA; [1]) [nM]
6.00 to 7.00 | 6.00 to 7.00 | 6.00 to 7.00 | > 7.00 | > 7.00 | > 7.00 | Cn1ncc(-c2ccc(-c3ccc(N4CC[C@H](NC(C)(C)C)C4)nn3)c(O)c2)cc1=O [Compound 298, 5-(4-{6-[(3S)-3-(tert-butylamino)pyrrolidin-1-yl]pyridazin-3-yl}-3-hydroxyphenyl)-2-methylpyridazin-3-one] | 100 to 1000 | 100 to 1000
6.00 to 7.00 | 6.00 to 7.00 | 6.00 to 7.00 | > 7.00 | > 7.00 | > 7.00 | COc1cc(-c2cc(O)c(-c3ccc(N4CC[C@H](NC5(C)CCC5)C4)nn3)cc2F)cnn1 [Compound 299] | 100 to 1000 | < 100
